# From patent US20240254119A1 (THIRD HARMONIC BIO, INC., priority 2022, published 2024)
# Target: T1, wtKIT (Homo sapiens, UniProt P10721)
# T1 construct: 1888289AM in the reaction mixtures
# Experiment: HTRF biochemical assay, wtKIT (phosphorylation of a peptide substrate)
# Details: Table 4
# Protocol: Exemplary compounds were tested for ability to inhibit the phosphorylation of a peptide substrate by the tyrosine kinase wt KIT, PDGFRα, or CSF-1R. Assay procedures and results are described below.
# Enzyme, substrate, and cofactors (ATP and Mn^2+) are combined in a well of a microtiter plate and incubated for 3 hours at 25° C. At the end of the incubation, the reaction is quenched by the addition of an EDTA-containing buffer.
# The substrate used in the CSF-1R and PDGFRα assay is FAM-[…]-CONH2 (FAM is carboxyfluorescein). Peptide should be >95% purity. The substrate for the KIT assay is FAM-[…]-NH2.
# • 1. To a well of a 384-wellplate add 5 μL of 2× enzyme buffer (or control). • 2. Add 100 nL of 100× compound. Enzyme and compound may be pre-incubated at this time if desired. • 3. Add 5 μL of 2× substrate buffer. • 4. Incubate plate at 25° C. for 3 hours. • 5. Add 10 uL of anti-phosphotyrosine antibody buffer. • 6. Read plate in BioTek Synergy Reader. Reaction Conditions for wtKIT Assay
# • 100 mM HEPES, pH 7.5 0.1% BSA • 0.01% Triton x-100 • 1 mM DTT • 10 mM MnCl2 • 10 μM Sodium Orthovanadate • 10 μM Beta-Glycerophosphate • 400 μM ATP • 1% DMSO (from compound) • 1 μM FAM-[…]-CONH2, 5.0 nM wtKIT Enzyme (1888289AM)* • *Specific activity may vary from lot to lot. Enzyme concentration may need to be adjusted to yield 10-20% conversion of substrate to product.
# T1 sequence (P10721 26-976): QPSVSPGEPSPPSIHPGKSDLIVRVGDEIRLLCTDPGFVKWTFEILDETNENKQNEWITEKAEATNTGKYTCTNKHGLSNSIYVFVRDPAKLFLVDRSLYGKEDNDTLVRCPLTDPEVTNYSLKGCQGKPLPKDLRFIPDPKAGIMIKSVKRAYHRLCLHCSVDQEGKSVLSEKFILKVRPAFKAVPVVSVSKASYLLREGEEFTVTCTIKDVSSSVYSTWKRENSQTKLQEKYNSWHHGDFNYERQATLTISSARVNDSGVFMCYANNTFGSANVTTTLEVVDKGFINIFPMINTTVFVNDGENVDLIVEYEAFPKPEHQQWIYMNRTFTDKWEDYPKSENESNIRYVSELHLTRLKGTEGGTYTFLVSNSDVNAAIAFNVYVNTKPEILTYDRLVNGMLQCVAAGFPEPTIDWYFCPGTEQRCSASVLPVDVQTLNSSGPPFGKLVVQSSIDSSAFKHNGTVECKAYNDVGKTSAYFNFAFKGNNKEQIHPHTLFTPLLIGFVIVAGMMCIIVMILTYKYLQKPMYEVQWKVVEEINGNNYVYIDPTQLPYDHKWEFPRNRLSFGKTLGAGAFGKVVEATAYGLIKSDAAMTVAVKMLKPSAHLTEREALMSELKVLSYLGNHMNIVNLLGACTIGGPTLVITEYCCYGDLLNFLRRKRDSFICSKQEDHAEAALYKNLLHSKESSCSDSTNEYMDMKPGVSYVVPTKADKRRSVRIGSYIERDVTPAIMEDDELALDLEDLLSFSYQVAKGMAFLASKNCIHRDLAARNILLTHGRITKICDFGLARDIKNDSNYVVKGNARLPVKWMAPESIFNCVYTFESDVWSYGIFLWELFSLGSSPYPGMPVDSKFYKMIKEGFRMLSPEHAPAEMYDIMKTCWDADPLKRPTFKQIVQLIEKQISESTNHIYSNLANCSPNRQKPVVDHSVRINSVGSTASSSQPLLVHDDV
row,SMILES,IC50 [nM]
1,Cc1ccn2c(C(=O)Nc3cc(-c4noc(-c5cccnc5)n4)ccc3C)cnc2c1 [Compound I-726],50 to 500
2,"Cc1ccc(-c2noc(CC(O)c3ccccc3)n2)cc1NC(=O)c1cnc2ccccn12 (stereo not drawn) [Compound I-517, N-(5-(5-(2-hydroxy-2-phenylethyl)-1,2,4-oxadiazol-3-yl)-2-methylphenyl)imidazo[1,2-a]pyridine-3-carboxamide]",≤ 50
3,"COc1ccn2c(C(=O)Nc3cc(-c4noc(-c5ccc(C)cn5)n4)ccc3C)cnc2c1 [Compound I-556, 7-methoxy-N-(2-methyl-5-(5-(5-methylpyridin-2-yl)-1,2,4-oxadiazol-3-yl)phenyl)imidazo[1,2-a]pyridine-3-carboxamide]",≤ 50
4,"Cc1ccc(-c2noc([C@H]3C[C@@H]3F)n2)cc1NC(=O)c1cnc2cc3c(cn12)COC3C (single isomer, unassigned) [Compound I-471, (6R*)—N-[5-[5-[(1R,2S)-2-fluorocyclopropyl]-1,2,4-oxadiazol-3-yl]-2-methyl-phenyl]-6-methyl-5-oxa-1,10-diazatricyclo[7.3.0.03,7]dodeca-2,7,9,11-tetraene-12-carboxamide]",≤ 50
5,COCc1ccn2c(C(=O)Nc3cc(-c4noc(CCN5CCCCC5)n4)ccc3C)cnc2c1 [Compound I-666],50 to 500
6,"Cc1ccc(-c2noc([C@H]3C[C@@H]3F)n2)cc1NC(=O)c1cnc2cc(COCC(O)C(F)F)ccn12 (stereo partly drawn) [Compound I-499, 7-((3,3-difluoro-2-hydroxypropoxy)methyl)-N-(5-(5-((1R,2S)-2-fluorocyclopropyl)-1,2,4-oxadiazol-3-yl)-2-methylphenyl)imidazo[1,2-a]pyridine-3-carboxamide]",≤ 50
7,"Cc1ccc(-c2noc([C@H]3C[C@@H]3F)n2)cc1NC(=O)c1cnc2ccc(COCC(C)(C)O)cn12 [Compound I-455, N-[5-[5-[(1R,2S)-2-fluorocyclopropyl]-1,2,4-oxadiazol-3-yl]-2-methyl-phenyl]-6-[(2-hydroxy-2-methyl-propoxy)methyl]imidazo[1,2-a]pyridine-3-carboxamide]",≤ 50
8,Cc1nc(-c2ccc(C)c(NC(=O)c3cnc4ccccn34)c2)no1 [Compound I-564],50 to 500
9,"Cc1ccc(-c2noc([C@H]3C[C@@H]3F)n2)cc1NC(=O)c1cnc2cc(OCCCN3CCCC3)ccn12 [Compound I-630, N-(5-(5-((1R,2S)-2-fluorocyclopropyl)-1,2,4-oxadiazol-3-yl)-2-methylphenyl)-7-(3-(pyrrolidin-1-yl)propoxy)imidazo[1,2-a]pyridine-3-carboxamide]",≤ 50
10,"Cc1ccc(-c2noc([C@@H]3CC4(CC4)CN3)n2)cc1NC(=O)c1cnc2cc(Cl)ccn12 [Compound I-627, (S)—N-(5-(5-(5-azaspiro[2.4]heptan-6-yl)-1,2,4-oxadiazol-3-yl)-2-methylphenyl)-7-chloroimidazo[1,2-a]pyridine-3-carboxamide]",≤ 50
11,"Cc1nc(-c2ccc(C)c(NC(=O)c3cnc4cc(OC5CCOC5)ccn34)c2)no1 (single isomer, unassigned) [Compound I-748]",50 to 500
12,"Cc1ccc(-c2noc(C[C@H](O)C(F)F)n2)cc1NC(=O)c1cnc2cc(O)ccn12 [Compound I-574, (S)—N-(5-(5-(3,3-difluoro-2-hydroxypropyl)-1,2,4-oxadiazol-3-yl)-2-methylphenyl)-7-hydroxyimidazo[1,2-a]pyridine-3-carboxamide]",≤ 50
13,Cc1ccn2c(C(=O)Nc3cc(-c4noc(-c5ccnnc5)n4)ccc3C)cnc2c1 [Compound I-546],50 to 500
14,"Cc1ccn2c(C(=O)Nc3cc(-c4noc(CCC(C)(O)C(F)(F)F)n4)ccc3C)cnc2c1 (single isomer, unassigned) [Compound I-516]",≤ 50
15,Cc1ccc(-c2ncon2)cc1NC(=O)c1cnc2cc(N3CCOCC3)ccn12 [Compound I-717],≤ 50
16,"Cc1ccc(-c2noc(C[C@H](O)C(F)F)n2)cc1NC(=O)c1cnc2cc(COCc3nc[nH]n3)ccn12 [Compound I-587, N-[5-[5-[(2S)-3,3-difluoro-2-hydroxy-propyl]-1,2,4-oxadiazol-3-yl]-2-methyl-phenyl]-7-(1H-1,2,4-triazol-3-ylmethoxymethyl)imidazo[1,2-a]pyridine-3-carboxamide]",≤ 50
17,"Cc1ccc(-c2noc(C3CC3F)n2)cc1NC(=O)c1cnc2cc(C(C)OCCO)ccn12 (single isomer, unassigned) [Compound I-450, N-[5-[5-[(1R,2S)-2-fluorocyclopropyl]-1,2,4-]-7-[(1S*)-1-(2-hydroxyethoxadiazol-3-yl]-2-methyl-phenyloxy)ethyl]imidazo[1,2-a]pyridine-3-carboxamide]",≤ 50
18,"Cc1ccc(-c2noc([C@H]3C[C@@H]3F)n2)cc1NC(=O)c1cnc2cc(Cl)c(F)cn12 [Compound I-613, 7-Chloro-6-fluoro-N-(5-(5-((1R,2S)-2-fluorocyclopropyl)-1,2,4-oxadiazol-3-yl)-2-methylphenyl)imidazo[1,2-a]pyridine-3-carboxamide]",≤ 50

# More lines, now with the values ahead:
row,IC50 [nM],SMILES
1,≤ 50,Cc1ccn2c(C(=O)Nc3cc(-c4noc(C5CCCCC5)n4)ccc3C)cnc2c1 [Compound I-539]
2,≤ 50,"Cc1ccc(-c2noc([C@H]3C[C@@H]3F)n2)cc1NC(=O)c1cnc2cc(COC[C@@H](O)C(F)F)ccn12 [Compound I-500, 7-(((R)-3,3-difluoro-2-hydroxypropoxy)methyl)-N-(5-(5-((1R,2S)-2-fluorocyclopropyl)-1,2,4-oxadiazol-3-yl)-2-methylphenyl)imidazo[1,2-a]pyridine-3-carboxamide]"
3,≤ 50,"Cc1ccc(-c2noc([C@H]3C[C@@H]3F)n2)cc1NC(=O)c1cnc2cc3c(cn12)C(C)OC3 (single isomer, unassigned) [Compound I-482, (4S*)—N-[5-[5-[(1R,2S)-2-fluorocyclopropyl]-1,2,4-oxadiazol-3-yl]-2-methyl-phenyl]-4-methyl-5-oxa-1,10-diazatricyclo[7.3.0.0^3,7]dodeca-2,7,9,11-tetraene-12-carboxamide]"
4,50 to 500,COCC(O)Cc1nc(-c2ccc(C)c(NC(=O)c3cnc4ccccn34)c2)no1 (stereo not drawn) [Compound I-528]
5,≤ 50,"Cc1ccc(-c2noc(CC(O)C(C)C)n2)cc1NC(=O)c1cnc2ccccn12 (stereo not drawn) [Compound I-525, N-(5-(5-(2-hydroxy-3-methylbutyl)-1,2,4-oxadiazol-3-yl)-2-methylphenyl)imidazo[1,2-a]pyridine-3-carboxamide]"
6,≤ 50,Cc1ccc(-c2noc(N3CC(F)(F)C3)n2)cc1NC(=O)c1cnn2cc(Cl)ccc12 [Compound I-625]
7,50 to 500,Cc1ccc(-c2noc(N3CC(F)(F)C3)n2)cc1NC(=O)c1cnn2cc(F)ccc12 [Compound I-626]
8,≤ 50,"Cc1nc(-c2ccc(C)c(NC(=O)c3cnc4cc(OCCCN5CCCC5)ccn34)c2)no1 [Compound I-629, N-(2-methyl-5-(5-methyl-1,2,4-oxadiazol-3-yl)phenyl)-7-(3-(pyrrolidin-1-yl)propoxy)imidazo[1,2-a]pyridine-3-carboxamide]"
9,≤ 50,Cc1ccc(-c2ncon2)cc1NC(=O)c1cnn2cc(-c3ccn(C)n3)ccc12 [Compound I-729]
10,≤ 50,"Cc1ccc(-c2noc([C@H]3C[C@@H]3F)n2)cc1NC(=O)c1cnc2cc([C@@H]3C[C@H]3CO)ccn12 [Compound I-481, N-[5-[5-[(1R,2S)-2-fluorocyclopropyl]-1,2,4-oxadiazol-3-yl]-2-methyl-phenyl]-7-[(1R,2R)-2 (hydroxymethyl)cyclopropyl]imidazo[1,2-a]pyridine-3-carboxamide]"
11,≤ 50,"Cc1ccc(-c2noc([C@H]3C[C@@H]3F)n2)cc1NC(=O)c1cnn2ccc(OC(C)C)cc12 [Compound I-493, N-(5-(5-((1R,2S)-2-fluorocyclopropyl)-1,2,4-oxadiazol-3-yl)-2-methylphenyl)-5-isopropoxypyrazolo[1,5-a]pyridine-3-carboxamide]"
12,≤ 50,Cc1ccc(-c2ncon2)cc1NC(=O)c1cnc2cc(-c3cscn3)ccn12 [Compound I-694]
13,500 to 5000,Cc1ccn2c(C(=O)Nc3cc(-c4noc(CC(=O)CF)n4)ccc3C)cnc2c1 [Compound I-589]
14,≤ 50,"Cc1ccc(-c2noc(C3CC(F)(F)C3)n2)cc1NC(=O)c1cnn2ccccc12 [Compound I-518, methyl N-(5-(5-(3,3-difluorocyclobutyl)-1,2,4-oxadiazol-3-yl)-2-methylphenyl)pyrazolo[1,5-a]pyridine-3-carboxamide]"
15,50 to 500,Cc1ccc(-c2noc(-c3ccccn3)n2)cc1NC(=O)c1cnc2cc(COCC(C)(C)O)ccn12 [Compound I-573]
16,500 to 5000,Cc1ccc(-c2noc([C@H](O)CO)n2)cc1NC(=O)c1cnc2cc(Cl)ccn12 [Compound I-604]
17,50 to 500,Cc1ccc(-c2noc(N3CC(F)(F)C3)n2)cc1NC(=O)c1cnc2cc(F)c(Cl)cn12 [Compound I-610]
18,≤ 50,"Cc1nc(-c2ccc(C)c(NC(=O)c3cnc4ccc(-c5ccn(C)n5)cn34)c2)no1 [Compound I-532, 6-(1-methyl-1H-pyrazol-3-yl)-N-(2-methyl-5-(5-methyl-1,2,4-oxadiazol-3-yl)phenyl)imidazo[1,2-a]pyridine-3-carboxamide]"
